Experiments:
[1] = target: T1, Norepinephrine Transporter (Homo sapiens, UniProt P23975); test: NovaScreen assay; assay type: binding; settings: read-out: Inhibition, 10 μM XL-647
T1 construct: NovaScreen

EphB4 = target: T2, EphB4 (Homo sapiens, UniProt P54760); test: Mechanism of action study / Ki determination; assay type: biochemical
T2 construct: residues E605-E890 of human EphB4 containing a six histidine NH2-terminal tag; His6 (N); made in house; host or cells: baculovirus expression system
T2 sequence (P54760 605-890): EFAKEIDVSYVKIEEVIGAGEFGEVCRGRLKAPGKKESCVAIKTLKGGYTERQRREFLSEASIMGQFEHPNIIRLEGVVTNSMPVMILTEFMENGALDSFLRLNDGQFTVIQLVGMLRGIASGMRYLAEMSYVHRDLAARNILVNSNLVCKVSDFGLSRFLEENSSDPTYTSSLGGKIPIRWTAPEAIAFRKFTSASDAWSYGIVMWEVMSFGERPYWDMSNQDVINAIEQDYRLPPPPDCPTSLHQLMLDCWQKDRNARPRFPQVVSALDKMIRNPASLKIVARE
Procedure: Enzymatic activity was measured by standard methods after dilution of the enzyme-inhibitor complex. Activity was compared to a DMSO control treated under identical conditions.

Acetylcholinesterase = target: T3, Acetylcholinesterase (Homo sapiens, UniProt P22303); test: NovaScreen assay; assay type: biochemical; settings: read-out: Inhibition, 10 μM XL-647
T3 construct: NovaScreen

A431 tumors = test: Immunohistochemical analysis of A431 tumors; assay type: in vivo, mouse; settings: 14-day dosing
Procedure: For immunohistochemical analysis of H1975, MDA-MB-231 and other xenografts, tumors were excised after euthanasia and fixed in zinc fixative (BD Biosciences) for 48 h before being processed into paraffin blocks. Serial sections at 5 μm were obtained from the area of largest possible surface for each tumor and stained using standard methods. The following antibodies were used: Ki67 (SP6; Labvision), CD31 (MECA.32; BD Biosciences), pERK^Thr202/Tyr204 (phospho-p44/42 mitogen-activated protein kinase; Cell Signaling Technology), pAKT^Ser473 (Cell Signaling Technology), and pEGFR^Tyr1068 (Cell Signaling Technology). For immunofluorescent staining, sections were then incubated with Alexa 594-conjugated goat anti-rabbit secondary antibody (Invitrogen) and mounted in Fluorescent Mounting Medium (DAKO) containing 4′,6-diamidino-2-phenylindole (Molecular Probes) as a nuclear counterstain. Fluorescent staining was visualized using a Zeiss Axiolmager and digitally captured using a Zeiss high-resolution camera coupled to AxioVision image analysis software. Two to three nonoverlapping representative fields were captured at ×200 or ×400 magnification depending on histologic readout and quantified using the integrated morphometric analysis functions in Metamorph software (Universal Imaging Corp.). Apoptotic cells were detected using terminal deoxynucleotidyl transferase-mediated dUTP nick end labeling in situ cell death detection kit according to the manufacturer's instructions (Roche Diagnostics GmbH).
CD31-positive tumor vessels, Ki67-positive proliferating cells, and pERK staining in each tumor section were identified and quantified using the integrated morphometric analysis functions in the ACIS automatic cellular imaging system (Clarient, Inc.) and reviewed by a blinded observer. Number of CD31-positive vessels were identified across 5 to 10 randomly chosen fields of equal size at ×100 magnification in viable tumor tissue and calculated as number of vessels per square millimeter for each tumor, averaged for each treatment group, and compared with vehicle-treated controls. Percentage Ki67-positive cells were calculated as the ratio between Ki67-positive cells divided by the total number of cells identified across 5 to 10 randomly chosen fields of equal size in viable tumor tissue. The results for each tumor and treatment group were averaged and compared with vehicle-treated controls. The level of pERK staining was determined as described above and calculated as the ratio of antibody staining divided by the total number of cells identified, averaged for each treatment group, and compared with vehicle-treated controls.

[2] = tested on: Potassium Channel, ATP-Sensitive; test: NovaScreen assay; assay type: binding
Plk1 = target: T4, Plk1 (Homo sapiens, UniProt P53350); test: Radiometric kinase assay; assay type: biochemical
T4 construct: His6
Procedure: (§1) Further screening was performed using the biochemical assay methods of Example 2. Additional description of the components and concentrations are summarized in Table 8, Table 9, and Table 10, below.

Chk2 = target: T5, Chk2 (Homo sapiens, UniProt O96017); test: Radiometric kinase assay; assay type: biochemical
T5 construct: Human, 5-543, N-; GST (N); His (C); purchased Upstate Biotechnology
Procedure: as §1

Chk1 = target: T6, Chk1 (Homo sapiens, UniProt O14757); test: Radiometric kinase assay; assay type: biochemical
T6 construct: GST (N); purchased Upstate Biotechnology
Procedure: as §1

Opiate, Non-selective = test: NovaScreen assay; assay type: binding
[3] = Clinical safety data, 159 subjects with cancer; settings: human, in vivo
[4] = tested on: ERK phosphorylation (H1975 cells); test: Immunoblot analysis of H1975 cell lysates; assay type: cell-based, human
Procedure: (§2) For the H1975 immunoblot studies, 3×10^5 cells were plated in each well (12-well plate) and incubated for 16 h in complete RPMI 1640, rinsed with fetal bovine serum-free RPMI 1640, and incubated with serial dilutions of test compounds in fetal bovine serum-free medium for 2 h followed by stimulation with 100 ng/mL human recombinant EGF for 10 min. Whole-cell protein lysates were prepared as described above and centrifuged for 10 min at 13,000×g at 4° C. to remove any insoluble material. Total protein was determined using bicinchoninic acid reagent and an equal amount of protein was combined with LDS loading buffer (Invitrogen) according to the manufacturer's instructions. Proteins were separated by gel electrophoresis on 4% to 15% polyacrylamide gels, transferred to nitrocellulose membranes, and detected by immunoblotting. Antibody:antigen complexes were detected using chemiluminescence. The following antibodies from Cell Signaling Technology were used at a 1:1,000 dilution: anti-EGFR, anti-pEGFR^Tyr1068, anti-AKT, anti-pAKT^Ser473, anti-ERK, and anti-pERK^Thr202/Tyr204. The anti-β-actin primary antibody (Accurate Chemical and Scientific) was used at 1:10,000 and the horseradish peroxidase-coupled secondary antibodies were purchased from Jackson ImmunoResearch and used at 1:5,000.

[5] = tested on: AKT phosphorylation (H1975 cells); test: Immunoblot analysis of H1975 cell lysates; assay type: cell-based, human
Procedure: as §2

clinical = settings: human, in vivo

T3 sequence (P22303 32-614, species assumed): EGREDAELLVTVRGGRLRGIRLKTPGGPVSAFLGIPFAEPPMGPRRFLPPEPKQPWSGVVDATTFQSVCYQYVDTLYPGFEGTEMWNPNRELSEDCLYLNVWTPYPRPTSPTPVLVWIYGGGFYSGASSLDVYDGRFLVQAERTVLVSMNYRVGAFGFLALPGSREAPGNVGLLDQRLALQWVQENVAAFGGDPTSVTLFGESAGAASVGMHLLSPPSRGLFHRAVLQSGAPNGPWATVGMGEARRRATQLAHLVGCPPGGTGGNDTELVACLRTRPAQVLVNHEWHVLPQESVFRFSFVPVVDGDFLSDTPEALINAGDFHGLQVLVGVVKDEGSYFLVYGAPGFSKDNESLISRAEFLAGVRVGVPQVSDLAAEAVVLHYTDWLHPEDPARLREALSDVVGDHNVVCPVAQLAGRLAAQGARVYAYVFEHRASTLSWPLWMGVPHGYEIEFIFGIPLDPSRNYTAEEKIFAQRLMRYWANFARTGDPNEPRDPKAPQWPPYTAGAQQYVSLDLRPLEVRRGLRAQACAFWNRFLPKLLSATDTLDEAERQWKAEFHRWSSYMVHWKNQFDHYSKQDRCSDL
T4 sequence (P53350 whole entry): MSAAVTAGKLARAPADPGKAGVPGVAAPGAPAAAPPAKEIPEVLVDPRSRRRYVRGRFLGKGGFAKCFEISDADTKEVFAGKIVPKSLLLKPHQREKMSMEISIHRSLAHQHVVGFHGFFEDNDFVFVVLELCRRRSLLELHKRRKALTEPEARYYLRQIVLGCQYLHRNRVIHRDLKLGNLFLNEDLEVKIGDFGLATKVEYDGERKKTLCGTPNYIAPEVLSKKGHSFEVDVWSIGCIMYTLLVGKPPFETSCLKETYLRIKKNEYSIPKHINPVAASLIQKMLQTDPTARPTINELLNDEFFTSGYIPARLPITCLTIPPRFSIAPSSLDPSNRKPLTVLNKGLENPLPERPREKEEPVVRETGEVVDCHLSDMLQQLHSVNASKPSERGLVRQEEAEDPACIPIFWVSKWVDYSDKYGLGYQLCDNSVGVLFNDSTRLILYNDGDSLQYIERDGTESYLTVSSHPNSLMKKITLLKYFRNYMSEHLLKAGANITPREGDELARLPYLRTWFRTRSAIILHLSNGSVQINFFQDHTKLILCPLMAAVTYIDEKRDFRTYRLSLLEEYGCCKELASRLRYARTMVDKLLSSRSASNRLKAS
T1 sequence (P23975 whole entry, species assumed): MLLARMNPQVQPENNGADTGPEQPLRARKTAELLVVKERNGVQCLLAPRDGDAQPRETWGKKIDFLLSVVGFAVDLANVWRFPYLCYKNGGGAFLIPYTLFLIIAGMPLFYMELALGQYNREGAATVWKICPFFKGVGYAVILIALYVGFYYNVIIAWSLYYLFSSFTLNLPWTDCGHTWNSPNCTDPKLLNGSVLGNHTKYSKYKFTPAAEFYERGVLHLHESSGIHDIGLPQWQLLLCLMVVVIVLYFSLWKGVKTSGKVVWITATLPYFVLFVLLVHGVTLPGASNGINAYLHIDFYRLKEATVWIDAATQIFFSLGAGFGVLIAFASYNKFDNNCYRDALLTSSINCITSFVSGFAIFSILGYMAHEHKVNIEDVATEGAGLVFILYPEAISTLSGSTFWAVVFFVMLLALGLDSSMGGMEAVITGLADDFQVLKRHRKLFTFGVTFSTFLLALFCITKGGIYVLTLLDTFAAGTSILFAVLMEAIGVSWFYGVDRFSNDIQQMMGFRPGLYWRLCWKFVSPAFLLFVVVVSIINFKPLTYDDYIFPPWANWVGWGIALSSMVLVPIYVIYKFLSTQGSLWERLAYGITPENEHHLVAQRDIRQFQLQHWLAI
T5 sequence (O96017 5-543): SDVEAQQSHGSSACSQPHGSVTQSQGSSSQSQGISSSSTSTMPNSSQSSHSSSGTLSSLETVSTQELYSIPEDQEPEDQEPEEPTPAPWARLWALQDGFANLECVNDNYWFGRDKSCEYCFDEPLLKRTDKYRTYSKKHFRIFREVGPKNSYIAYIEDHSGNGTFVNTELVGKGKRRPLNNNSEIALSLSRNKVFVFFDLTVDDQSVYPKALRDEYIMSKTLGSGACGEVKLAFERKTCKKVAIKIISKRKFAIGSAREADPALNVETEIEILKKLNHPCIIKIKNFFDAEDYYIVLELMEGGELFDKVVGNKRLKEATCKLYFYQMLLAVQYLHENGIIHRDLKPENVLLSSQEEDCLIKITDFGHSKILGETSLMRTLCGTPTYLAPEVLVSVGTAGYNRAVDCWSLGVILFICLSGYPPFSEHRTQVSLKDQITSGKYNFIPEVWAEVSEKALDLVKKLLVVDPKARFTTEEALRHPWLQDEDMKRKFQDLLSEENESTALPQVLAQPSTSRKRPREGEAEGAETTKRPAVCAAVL
T6 sequence (O14757 whole entry): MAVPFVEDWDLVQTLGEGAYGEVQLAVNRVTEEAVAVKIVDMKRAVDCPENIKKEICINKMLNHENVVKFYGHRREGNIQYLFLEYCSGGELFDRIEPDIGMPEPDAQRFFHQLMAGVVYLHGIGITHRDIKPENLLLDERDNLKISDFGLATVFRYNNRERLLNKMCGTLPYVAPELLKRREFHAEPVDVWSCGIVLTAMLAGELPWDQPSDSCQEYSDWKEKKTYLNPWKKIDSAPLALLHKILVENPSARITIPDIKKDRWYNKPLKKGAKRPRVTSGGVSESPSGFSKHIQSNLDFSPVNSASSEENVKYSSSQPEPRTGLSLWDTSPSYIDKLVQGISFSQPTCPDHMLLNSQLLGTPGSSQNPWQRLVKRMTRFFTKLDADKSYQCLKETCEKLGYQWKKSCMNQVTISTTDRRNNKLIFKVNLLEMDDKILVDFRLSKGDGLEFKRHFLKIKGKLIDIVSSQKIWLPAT

COc1cc2c(Nc3ccc(Cl)c(Cl)c3F)ncnc2cc1OC[C@@H]1C[C@@H]2CN(C)C[C@@H]2C1 [XL-647, N-(3,4-dichloro-2-fluorophenyl)-7-({[(3aR,5r,6aS)-2-methyloctahydrocyclopenta[c]pyrrol-5-yl]methyl}oxy)-6-(methyloxy)quinazolin-4-amine]
inhibition at 10 µM [1]: -5.38%
ATP-Competitive (EphB4): Yes
Ki (EphB4): 0.001 µM
Reversible (EphB4): Yes
inhibition at 10 µM (Acetylcholinesterase): 49.4%
CD31 Analysis % Reduction (A431 tumors; 10 mg/kg): 33.5%
CD31 Analysis MVC (A431 tumors; 10 mg/kg): 18.6
Ki67 Expression % Reduction (A431 tumors; 10 mg/kg): 53.3%
Ki67 Expression % of Cells (A431 tumors; 10 mg/kg): 17.6%
Necrosis % Increase (A431 tumors; 10 mg/kg): 20.7%
CD31 Analysis % Reduction (A431 tumors; 30 mg/kg): 43.2%
CD31 Analysis MVC (A431 tumors; 30 mg/kg): 15.9
Ki67 Expression % Reduction (A431 tumors; 30 mg/kg): 67.2%
Ki67 Expression % of Cells (A431 tumors; 30 mg/kg): 12.3%
Necrosis % Increase (A431 tumors; 30 mg/kg): 26.5%
CD31 Analysis % Reduction (A431 tumors; 100 mg/kg): 87.3%
CD31 Analysis MVC (A431 tumors; 100 mg/kg): 3.6
Ki67 Expression % Reduction (A431 tumors; 100 mg/kg): 82.6%
Ki67 Expression % of Cells (A431 tumors; 100 mg/kg): 6.5%
Necrosis % Increase (A431 tumors; 100 mg/kg): 61.7%
Inhibition, 10 μM XL-647 [2]: 5.02%
IC50 (Plk1): > 1 µM
IC50 (Chk2): > 10 µM
IC50 (Chk1): > 10 µM
Inhibition, 10 μM XL-647 (Opiate, Non-selective): 39.73%
deaths attributed to study drug [3]: no deaths attributed to study drug
phosphorylation of ERK, immunoblot [4]: inhibits the phosphorylation of AKT and ERK
phosphorylation of AKT, immunoblot [5]: inhibits the phosphorylation of AKT and ERK
half-life (clinical): ~60 h
Tmax (clinical; po): ~4 h
